Earlier results as cited in patent US20130310903A1, “Anti-Depression Light-Wave Device and Usage Thereof” (priority 2012, published 2013).
Where two headings read alike, the source gives them in different places.

Conditions: 12-week administration; for CGI outcome Worse: share of patients

Fc1ccc([C@@H]2CCNC[C@H]2COc2ccc3c(c2)OCO3)cc1 [Paxil, Paroxetine]
CGI outcome Minimally (20 mg): 33% | CGI outcome Much Improved (20 mg): 18% | CGI outcome No Change (20 mg): 35% | CGI outcome Very Much (20 mg): 7% | CGI outcome Worse (20 mg): 7% | CGI outcome Minimally (40 mg): 29% | CGI outcome Much Improved (40 mg): 22% | CGI outcome No Change (40 mg): 22% | CGI outcome Very Much (40 mg): 20% | CGI outcome Worse (40 mg): 7% | CGI outcome Minimally (60 mg): 34% | CGI outcome Much Improved (60 mg): 24% | CGI outcome No Change (60 mg): 19% | CGI outcome Very Much (60 mg): 20% | CGI outcome Worse (60 mg): 3%
